Values joined by “and” are separate entries in the source; they are usually repeats but may differ in a detail not shown here. Equal entries are not always repeated.
What was measured:
Experiment in all cases: In-cell proteome-wide competitive ABPP, HEK293: other DUBs and proteins
[1] = target: DUBs and other proteins in HEK293 cells (Homo sapiens, UniProt O00303); settings: for Log2 reporter intensity values, EIF3F: TMT replicates; for Log2 reporter intensity values: EIF3F: competition with ABP 2, DMSO substract (FC); for Log2 reporter intensity values: EIF3F / Log2 reporter intensity values: replicates A-C; for Log2 t-test Difference / Log2 reporter intensity values: EIF3F
[2] = target: DUBs and other proteins in HEK293 cells (Homo sapiens, UniProt Q7L5N1); settings: for Log2 reporter intensity values, COPS6: TMT replicates; for Log2 reporter intensity values: COPS6: competition with ABP 2, DMSO substract (FC); for Log2 reporter intensity values: COPS6 / Log2 reporter intensity values: replicates A-C; for Log2 t-test Difference / Log2 reporter intensity values: COPS6
[3] = target: T1, DUBs and other proteins in HEK293 cells (Homo sapiens, UniProt P51665); settings: replicates A-C; for Log2 reporter intensity values: PSMD7: competition with ABP 2, DMSO substract (FC); for Log2 reporter intensity values: PSMD7, DMSO subtracted
T1 sequence (P51665 1-324): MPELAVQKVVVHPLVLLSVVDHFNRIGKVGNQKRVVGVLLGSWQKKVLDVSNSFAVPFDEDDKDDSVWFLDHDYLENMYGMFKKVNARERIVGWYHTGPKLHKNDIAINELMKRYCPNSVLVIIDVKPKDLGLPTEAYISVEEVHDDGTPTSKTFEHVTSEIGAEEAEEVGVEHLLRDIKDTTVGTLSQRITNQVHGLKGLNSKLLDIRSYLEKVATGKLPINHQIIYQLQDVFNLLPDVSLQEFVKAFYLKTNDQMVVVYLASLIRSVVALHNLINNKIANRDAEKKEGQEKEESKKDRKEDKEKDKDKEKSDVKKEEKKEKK

[4] = target: DUBs and other proteins in HEK293 cells (Homo sapiens, UniProt Q9UPU5); settings: replicates A-C; for Log2 reporter intensity values: USP24: competition with ABP 2, DMSO substract (FC); for Log2 reporter intensity values: USP24, DMSO subtracted
[5] = target: DUBs and other proteins in HEK293 cells (Homo sapiens, UniProt P54578); settings: replicates A-C; for Log2 reporter intensity values: USP14: competition with ABP 2, DMSO substract (FC); for Log2 reporter intensity values: USP14, DMSO subtracted
[6] = target: DUBs and other proteins in HEK293 cells (Homo sapiens, UniProt Q93009); settings: replicates A-C; for Log2 reporter intensity values: USP7: competition with ABP 2, DMSO substract (FC); for Log2 reporter intensity values: USP7, DMSO subtracted
[7] = target: T2, DUBs and other proteins in HEK293 cells (Homo sapiens, UniProt Q86UV5); settings: for Log2 reporter intensity values: USP48: competition with ABP 2, DMSO substract (FC), replicates A-B; for Log2 reporter intensity values: USP48, DMSO subtracted
T2 sequence (Q86UV5 1-1035): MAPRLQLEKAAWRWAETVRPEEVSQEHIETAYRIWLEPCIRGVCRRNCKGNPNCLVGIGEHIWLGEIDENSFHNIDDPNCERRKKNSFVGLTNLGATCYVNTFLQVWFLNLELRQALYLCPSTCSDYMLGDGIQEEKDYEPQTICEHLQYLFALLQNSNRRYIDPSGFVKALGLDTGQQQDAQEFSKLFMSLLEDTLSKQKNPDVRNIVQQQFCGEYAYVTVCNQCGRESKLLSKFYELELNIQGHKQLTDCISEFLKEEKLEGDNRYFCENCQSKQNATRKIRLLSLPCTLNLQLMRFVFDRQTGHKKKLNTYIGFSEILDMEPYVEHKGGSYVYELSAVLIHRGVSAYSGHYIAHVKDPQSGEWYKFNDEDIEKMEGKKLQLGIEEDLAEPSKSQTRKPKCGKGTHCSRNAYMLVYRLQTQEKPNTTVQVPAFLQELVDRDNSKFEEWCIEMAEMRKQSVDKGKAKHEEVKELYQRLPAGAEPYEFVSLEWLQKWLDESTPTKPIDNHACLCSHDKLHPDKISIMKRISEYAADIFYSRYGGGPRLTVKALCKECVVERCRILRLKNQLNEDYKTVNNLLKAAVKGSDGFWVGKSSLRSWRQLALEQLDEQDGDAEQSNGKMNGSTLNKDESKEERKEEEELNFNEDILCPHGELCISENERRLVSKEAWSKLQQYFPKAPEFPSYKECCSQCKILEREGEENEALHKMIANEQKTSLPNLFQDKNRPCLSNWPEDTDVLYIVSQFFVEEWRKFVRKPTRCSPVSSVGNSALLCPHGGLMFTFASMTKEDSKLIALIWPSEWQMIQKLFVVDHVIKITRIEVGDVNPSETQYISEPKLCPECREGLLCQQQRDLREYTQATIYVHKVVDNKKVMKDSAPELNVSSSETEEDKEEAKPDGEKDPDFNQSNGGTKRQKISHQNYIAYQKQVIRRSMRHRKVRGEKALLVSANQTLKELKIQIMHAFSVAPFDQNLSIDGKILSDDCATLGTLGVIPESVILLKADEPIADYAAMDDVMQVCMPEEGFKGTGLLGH

[8] = 1 μM 3 (60 min) + 20 nM ABP 2 (10 min), All values
[9] = 1 μM 3 (60 min) + 20 nM ABP 2 (10 min), DMSO subtracted
[10] = 4 μM 3 (60 min) + 20 nM ABP 2 (10 min), All values
[11] = 4 μM 3 (60 min) + 20 nM ABP 2 (10 min), DMSO subtracted

DUBs and other proteins in HEK293 cells (Homo sapiens, UniProt Q93009), sequence (Q93009 whole entry): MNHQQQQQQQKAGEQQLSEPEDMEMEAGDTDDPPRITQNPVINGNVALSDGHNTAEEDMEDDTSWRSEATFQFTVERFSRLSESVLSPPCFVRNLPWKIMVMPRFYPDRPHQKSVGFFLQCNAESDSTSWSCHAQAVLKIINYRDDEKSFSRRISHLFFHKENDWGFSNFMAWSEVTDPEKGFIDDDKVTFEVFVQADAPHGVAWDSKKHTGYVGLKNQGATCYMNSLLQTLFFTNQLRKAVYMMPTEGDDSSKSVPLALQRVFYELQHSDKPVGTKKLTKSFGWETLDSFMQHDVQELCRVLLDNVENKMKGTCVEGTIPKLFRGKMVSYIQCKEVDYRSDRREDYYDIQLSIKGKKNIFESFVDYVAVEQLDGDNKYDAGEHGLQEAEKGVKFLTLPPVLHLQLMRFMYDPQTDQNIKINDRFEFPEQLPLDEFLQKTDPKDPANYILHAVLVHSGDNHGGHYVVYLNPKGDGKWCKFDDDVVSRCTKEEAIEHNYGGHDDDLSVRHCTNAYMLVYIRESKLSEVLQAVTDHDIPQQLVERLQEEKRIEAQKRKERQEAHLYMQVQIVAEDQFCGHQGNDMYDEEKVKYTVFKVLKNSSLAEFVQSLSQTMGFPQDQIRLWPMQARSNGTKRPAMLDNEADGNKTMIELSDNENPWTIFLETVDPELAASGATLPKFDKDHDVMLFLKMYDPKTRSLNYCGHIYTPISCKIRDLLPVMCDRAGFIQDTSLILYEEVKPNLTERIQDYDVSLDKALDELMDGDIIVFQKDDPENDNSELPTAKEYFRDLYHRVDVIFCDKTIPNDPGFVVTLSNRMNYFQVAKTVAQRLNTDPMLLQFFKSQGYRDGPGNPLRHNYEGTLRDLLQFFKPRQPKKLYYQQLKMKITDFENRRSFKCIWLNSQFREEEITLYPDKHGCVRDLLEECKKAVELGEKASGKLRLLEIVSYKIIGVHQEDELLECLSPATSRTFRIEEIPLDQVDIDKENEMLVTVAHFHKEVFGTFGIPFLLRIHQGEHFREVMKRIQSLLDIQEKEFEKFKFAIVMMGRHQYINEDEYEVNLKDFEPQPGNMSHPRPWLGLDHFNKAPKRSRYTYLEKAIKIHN
DUBs and other proteins in HEK293 cells (Homo sapiens, UniProt O00303), sequence (O00303 whole entry): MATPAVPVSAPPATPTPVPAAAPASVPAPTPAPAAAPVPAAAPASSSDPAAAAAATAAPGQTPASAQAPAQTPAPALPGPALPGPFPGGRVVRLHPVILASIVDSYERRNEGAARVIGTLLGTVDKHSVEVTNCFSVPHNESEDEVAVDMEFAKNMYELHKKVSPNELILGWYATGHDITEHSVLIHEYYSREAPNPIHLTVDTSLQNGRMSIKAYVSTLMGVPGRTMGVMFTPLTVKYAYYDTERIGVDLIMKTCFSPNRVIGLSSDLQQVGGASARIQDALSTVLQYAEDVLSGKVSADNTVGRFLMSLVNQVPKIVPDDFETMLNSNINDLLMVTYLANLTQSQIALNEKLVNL
DUBs and other proteins in HEK293 cells (Homo sapiens, UniProt P54578), sequence (P54578 whole entry): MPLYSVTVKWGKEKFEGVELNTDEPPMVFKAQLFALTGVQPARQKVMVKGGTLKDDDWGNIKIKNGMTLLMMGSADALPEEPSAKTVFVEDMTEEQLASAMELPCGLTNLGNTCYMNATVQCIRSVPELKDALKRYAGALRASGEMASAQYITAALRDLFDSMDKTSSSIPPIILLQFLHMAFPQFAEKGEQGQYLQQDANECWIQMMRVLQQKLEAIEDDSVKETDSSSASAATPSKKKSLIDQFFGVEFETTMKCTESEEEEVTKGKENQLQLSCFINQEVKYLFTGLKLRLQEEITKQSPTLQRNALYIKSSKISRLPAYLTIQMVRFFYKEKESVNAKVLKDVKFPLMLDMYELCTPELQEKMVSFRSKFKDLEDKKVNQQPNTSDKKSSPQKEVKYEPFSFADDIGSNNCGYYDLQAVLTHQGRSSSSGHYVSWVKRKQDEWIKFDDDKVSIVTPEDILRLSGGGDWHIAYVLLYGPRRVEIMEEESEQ
DUBs and other proteins in HEK293 cells (Homo sapiens, UniProt Q9UPU5), sequence (Q9UPU5 whole entry): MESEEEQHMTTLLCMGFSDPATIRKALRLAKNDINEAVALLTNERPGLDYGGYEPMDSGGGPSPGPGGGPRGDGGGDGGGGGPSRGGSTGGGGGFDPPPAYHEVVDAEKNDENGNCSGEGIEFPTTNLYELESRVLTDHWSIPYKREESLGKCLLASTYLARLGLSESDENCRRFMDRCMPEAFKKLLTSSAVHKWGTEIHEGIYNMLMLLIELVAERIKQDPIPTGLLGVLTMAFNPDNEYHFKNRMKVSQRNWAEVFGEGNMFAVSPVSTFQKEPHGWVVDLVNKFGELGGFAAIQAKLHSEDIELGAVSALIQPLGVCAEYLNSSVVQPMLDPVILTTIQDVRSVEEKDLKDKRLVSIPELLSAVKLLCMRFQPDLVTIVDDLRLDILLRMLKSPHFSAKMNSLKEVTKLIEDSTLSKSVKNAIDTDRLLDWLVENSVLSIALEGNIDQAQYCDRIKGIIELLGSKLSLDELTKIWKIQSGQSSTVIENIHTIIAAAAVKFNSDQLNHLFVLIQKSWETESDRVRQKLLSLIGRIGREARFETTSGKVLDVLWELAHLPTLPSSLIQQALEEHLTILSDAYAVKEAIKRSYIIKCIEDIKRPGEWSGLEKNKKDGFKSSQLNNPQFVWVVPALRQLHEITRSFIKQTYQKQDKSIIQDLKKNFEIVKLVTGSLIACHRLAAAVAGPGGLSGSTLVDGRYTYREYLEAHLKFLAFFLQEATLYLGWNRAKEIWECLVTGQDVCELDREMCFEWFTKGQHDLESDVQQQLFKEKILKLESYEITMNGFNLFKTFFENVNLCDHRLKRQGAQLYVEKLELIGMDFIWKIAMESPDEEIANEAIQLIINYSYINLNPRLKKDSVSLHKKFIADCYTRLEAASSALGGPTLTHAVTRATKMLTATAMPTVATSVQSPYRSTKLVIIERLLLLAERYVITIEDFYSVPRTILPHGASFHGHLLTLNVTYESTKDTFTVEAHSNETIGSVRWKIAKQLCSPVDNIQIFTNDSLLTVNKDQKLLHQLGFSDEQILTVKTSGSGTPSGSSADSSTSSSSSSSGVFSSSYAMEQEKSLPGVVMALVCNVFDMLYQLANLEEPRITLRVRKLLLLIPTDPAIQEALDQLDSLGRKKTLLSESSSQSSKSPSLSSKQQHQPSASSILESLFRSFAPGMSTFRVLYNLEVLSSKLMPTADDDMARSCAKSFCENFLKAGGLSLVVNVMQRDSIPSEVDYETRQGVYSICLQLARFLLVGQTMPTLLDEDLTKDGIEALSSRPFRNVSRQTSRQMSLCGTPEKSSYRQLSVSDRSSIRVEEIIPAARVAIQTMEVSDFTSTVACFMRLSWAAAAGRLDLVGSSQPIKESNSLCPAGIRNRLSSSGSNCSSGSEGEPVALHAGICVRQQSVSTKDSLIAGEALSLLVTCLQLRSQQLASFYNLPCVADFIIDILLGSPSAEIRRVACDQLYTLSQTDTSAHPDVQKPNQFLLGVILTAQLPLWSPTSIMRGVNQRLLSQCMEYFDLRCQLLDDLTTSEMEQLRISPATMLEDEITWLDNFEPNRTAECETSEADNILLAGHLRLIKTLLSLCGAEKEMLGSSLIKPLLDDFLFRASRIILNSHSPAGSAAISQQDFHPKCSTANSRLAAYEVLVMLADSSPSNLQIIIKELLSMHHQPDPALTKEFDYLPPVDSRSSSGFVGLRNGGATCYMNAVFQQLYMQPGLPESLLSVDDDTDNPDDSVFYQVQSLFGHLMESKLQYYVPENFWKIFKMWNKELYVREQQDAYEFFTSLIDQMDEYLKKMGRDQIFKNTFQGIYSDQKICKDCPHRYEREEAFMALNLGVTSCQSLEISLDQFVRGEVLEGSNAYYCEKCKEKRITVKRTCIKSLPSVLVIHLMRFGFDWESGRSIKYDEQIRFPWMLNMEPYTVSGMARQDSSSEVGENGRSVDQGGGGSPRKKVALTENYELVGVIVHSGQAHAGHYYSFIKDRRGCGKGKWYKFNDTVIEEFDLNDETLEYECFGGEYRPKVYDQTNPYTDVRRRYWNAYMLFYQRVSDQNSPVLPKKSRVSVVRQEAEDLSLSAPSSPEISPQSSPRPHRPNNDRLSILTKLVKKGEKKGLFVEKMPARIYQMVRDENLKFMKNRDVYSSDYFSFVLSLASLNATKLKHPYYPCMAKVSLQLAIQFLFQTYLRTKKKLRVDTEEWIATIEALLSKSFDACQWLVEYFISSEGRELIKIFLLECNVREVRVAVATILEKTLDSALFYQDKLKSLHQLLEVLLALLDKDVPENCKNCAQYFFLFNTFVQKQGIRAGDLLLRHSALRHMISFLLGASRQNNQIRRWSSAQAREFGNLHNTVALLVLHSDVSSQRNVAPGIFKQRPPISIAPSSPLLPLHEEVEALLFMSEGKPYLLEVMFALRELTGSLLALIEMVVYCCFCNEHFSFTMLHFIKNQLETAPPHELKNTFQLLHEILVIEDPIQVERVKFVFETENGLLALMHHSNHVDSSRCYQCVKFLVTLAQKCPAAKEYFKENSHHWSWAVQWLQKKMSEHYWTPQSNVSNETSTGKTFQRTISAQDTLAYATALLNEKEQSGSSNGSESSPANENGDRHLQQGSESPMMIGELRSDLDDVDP
DUBs and other proteins in HEK293 cells (Homo sapiens, UniProt Q7L5N1), sequence (Q7L5N1 whole entry): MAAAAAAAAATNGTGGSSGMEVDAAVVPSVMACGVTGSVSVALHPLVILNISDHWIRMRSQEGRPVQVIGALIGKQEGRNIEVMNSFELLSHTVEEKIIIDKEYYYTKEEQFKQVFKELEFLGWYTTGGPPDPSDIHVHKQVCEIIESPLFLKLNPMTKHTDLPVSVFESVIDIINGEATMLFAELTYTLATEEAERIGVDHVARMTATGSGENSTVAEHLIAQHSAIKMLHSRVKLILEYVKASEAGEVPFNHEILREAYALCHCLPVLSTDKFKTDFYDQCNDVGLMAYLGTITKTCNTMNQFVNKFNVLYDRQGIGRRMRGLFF

Log2 reporter intensity values, EIF3F [1, 8]: 0.01809 and -0.02026 and 0.07981
Log2 reporter intensity values, EIF3F [1, 9]: 0.02764 and -0.01071 and 0.08936
Log2 reporter intensity values, EIF3F [1, 10]: -0.1978 and 0.02104 and -0.01378
Log2 reporter intensity values, EIF3F [1, 11]: -0.1882 and 0.03059 and -0.004226
Log2 reporter intensity values: EIF3F ([1]; 3 at 1 μM): 1.019 and 0.9926 and 1.064
Log2 reporter intensity values: EIF3F ([1]; 3 at 4 μM): 0.8777 and 1.021 and 0.9971
Log2 t-test Difference ([1]; 3 - 1 μM): -0.05527
Log2 t-test Difference ([1]; 3 - 4 μM): -0.1447
Log2 reporter intensity values ([1]; 3_1 μM, DMSO subtracted): 0.01893 and -0.007817 and 0.06348
Log2 reporter intensity values ([1]; 3_4 μM, DMSO subtracted): -0.1227 and 0.02101 and -0.003343
Log2 reporter intensity values ([1]; 3 at 1 μM, DMSO subtracted): 0.02764 and -0.01071 and 0.08936
Log2 reporter intensity values ([1]; 3 at 4 μM, DMSO subtracted): -0.1882 and 0.03059 and -0.004226
Log2 reporter intensity values, COPS6 [2, 8]: 0.04099 and 0.07831 and 0.06581
Log2 reporter intensity values, COPS6 [2, 9]: 0.02857 and 0.06589 and 0.0534
Log2 reporter intensity values, COPS6 [2, 10]: -0.1551 and -0.06324 and -0.1331
Log2 reporter intensity values, COPS6 [2, 11]: -0.1675 and -0.07565 and -0.1455
Log2 reporter intensity values: COPS6 ([2]; 3 at 1 μM): 1.02 and 1.047 and 1.038
Log2 reporter intensity values: COPS6 ([2]; 3 at 4 μM): 0.8904 and 0.9489 and 0.9041
Log2 t-test Difference ([2]; 3 - 1 μM): 0.00565
Log2 t-test Difference ([2]; 3 - 4 μM): -0.1732
Log2 reporter intensity values ([2]; 3_1 μM, DMSO subtracted): 0.01989 and 0.04662 and 0.0376
Log2 reporter intensity values ([2]; 3_4 μM, DMSO subtracted): -0.1098 and -0.0512 and -0.09603
Log2 reporter intensity values ([2]; 3 at 1 μM, DMSO subtracted): 0.02857 and 0.06589 and 0.0534
Log2 reporter intensity values ([2]; 3 at 4 μM, DMSO subtracted): -0.1675 and -0.07565 and -0.1455
Log2 reporter intensity values: PSMD7 ([3]; 3 at 1 μM): 1.2 and 1.081 and 1.198
Log2 reporter intensity values: PSMD7 ([3]; 3 at 4 μM): 1.083 and 1.233 and 0.9957
Log2 reporter intensity values ([3]; 3_1 μM): 0.1973 and 0.07834 and 0.1956
Log2 reporter intensity values ([3]; 3_4 μM): 0.08024 and 0.2301 and -0.006858
Log2 reporter intensity values ([3]; 3 at 1 μM): 0.2629 and 0.1122 and 0.2608
Log2 reporter intensity values ([3]; 3 at 4 μM): 0.1148 and 0.3017 and -0.006207
Log2 reporter intensity values: USP24 ([4]; 3 at 1 μM): 1.062 and 1.01 and 1.397
Log2 reporter intensity values: USP24 ([4]; 3 at 4 μM): 1.531 and 1.061 and 0.663
Log2 reporter intensity values ([4]; 3_1 μM): 0.05897 and 0.007121 and 0.3935
Log2 reporter intensity values ([4]; 3_4 μM): 0.5273 and 0.05764 and -0.3403
Log2 reporter intensity values ([4]; 3 at 1 μM): 0.08723 and 0.01505 and 0.4822
Log2 reporter intensity values ([4]; 3 at 4 μM): 0.6141 and 0.08543 and -0.5928
Log2 reporter intensity values: USP14 ([5]; 3 at 1 μM): 1.142 and 1.077 and 1.079
Log2 reporter intensity values: USP14 ([5]; 3 at 4 μM): 1.079 and 1.198 and 1.16
Log2 reporter intensity values ([5]; 3_1 μM): 0.1415 and 0.07672 and 0.07886
Log2 reporter intensity values ([5]; 3_4 μM): 0.07915 and 0.1978 and 0.16
Log2 reporter intensity values ([5]; 3 at 1 μM): 0.1912 and 0.1069 and 0.1098
Log2 reporter intensity values ([5]; 3 at 4 μM): 0.1102 and 0.2606 and 0.2145
Log2 reporter intensity values: USP7 ([6]; 3 at 1 μM): 1.005 and 1.034 and 1.047
Log2 reporter intensity values: USP7 ([6]; 3 at 4 μM): 0.9485 and 1.006 and 0.9977
Log2 reporter intensity values ([6]; 3_1 μM): 0.004952 and 0.03394 and 0.04709
Log2 reporter intensity values ([6]; 3_4 μM): -0.05181 and 0.006115 and -0.002591
Log2 reporter intensity values ([6]; 3 at 1 μM): 0.007531 and 0.04854 and 0.06677
Log2 reporter intensity values ([6]; 3 at 4 μM): -0.07633 and 0.0092 and -0.003335
Log2 reporter intensity values: USP48 ([7]; 3 at 1 μM): 1.063 and 0.8844
Log2 reporter intensity values: USP48 ([7]; 3 at 4 μM): 0.8635 and 1.157
Log2 reporter intensity values ([7]; 3_1 μM, replicates A-B (C NaN)): 0.06169 and -0.1169
Log2 reporter intensity values ([7]; 3_4 μM, replicates A-B (C NaN)): -0.1378 and 0.156
Log2 reporter intensity values ([7]; 3 at 1 μM, replicates A-C): 0.08809 and -0.1773
Log2 reporter intensity values ([7]; 3 at 4 μM, replicates A-C): -0.2118 and 0.2108
Structure (SMILES): N#CN1CCC[C@@H]1C(=O)N1CCc2c(-c3c[nH]c4ncccc34)cccc21 [Compound 3]
